From the supplement of paper PMC10307832

Experiments:
Test in all cases: relative viability (nuclei count vs DMSO), 5 days (fraction); higher = more cells survive
[1] = compound: CCn1c(-c2nonc2N)nc2cnc(Oc3cccc(NC(=O)c4ccc(OCCN5CCOCC5)cc4)c3)cc21 + COc1cccc2cc(-c3nc([C@H]4CC[C@H](C(=O)O)CC4)n4ncnc(N)c34)[nH]c12 [OSI-027] (partner 0.5 µM)
How it was run: (§1)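 One day after seeding in 1536-well plates, lung cancer cell lines were dosed by pin tool. Dosing was either single-drug or a fixed anchor-drug dose plus five library-drug doses (not always all listed) in √10 steps. After 5 days, nuclei were stained in one fix-and-stain step and counted on 4× images, and relative viability is the nuclei count of treated wells over that of vehicle wells, given as the median of duplicate plates.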

Mirin + Palbociclib = compound: N=C1NC(=O)/C(=C/c2ccc(O)cc2)S1 [Mirin] + CC(=O)c1c(C)c2cnc(Nc3ccc(N4CCNCC4)cn3)nc2n(C2CCCC2)c1=O [Palbociclib] (partner 0.5 µM)
How it was run: as §1

Mirin + Foretinib = compound: N=C1NC(=O)/C(=C/c2ccc(O)cc2)S1 [Mirin] + COc1cc2c(Oc3ccc(NC(=O)C4(C(=O)Nc5ccc(F)cc5)CC4)cc3F)ccnc2cc1OCCCN1CCOCC1 [Foretinib] (partner 0.25 µM)
How it was run: as §1

Mirin + Pictilisib = compound: N=C1NC(=O)/C(=C/c2ccc(O)cc2)S1 [Mirin] + CS(=O)(=O)N1CCN(Cc2cc3nc(-c4cccc5[nH]ncc45)nc(N4CCOCC4)c3s2)CC1 [Pictilisib] (partner 1 µM)
How it was run: as §1

Cell Line | relative viability ([1]; first compound 0.04 µM) | relative viability ([1]; first compound 0.1265 µM) | relative viability ([1]; first compound 0.4 µM) | relative viability ([1]; first compound 1.265 µM) | relative viability ([1]; first compound 4 µM) | relative viability (Mirin + Palbociclib; first compound 0.25 µM) | relative viability (Mirin + Palbociclib; first compound 0.7906 µM) | relative viability (Mirin + Palbociclib; first compound 2.5 µM) | relative viability (Mirin + Palbociclib; first compound 7.906 µM) | relative viability (Mirin + Palbociclib; first compound 25 µM) | relative viability (Mirin + Foretinib; first compound 0.25 µM) | relative viability (Mirin + Foretinib; first compound 0.7906 µM) | relative viability (Mirin + Foretinib; first compound 2.5 µM) | relative viability (Mirin + Foretinib; first compound 7.906 µM) | relative viability (Mirin + Foretinib; first compound 25 µM) | relative viability (Mirin + Pictilisib; first compound 0.25 µM) | relative viability (Mirin + Pictilisib; first compound 0.7906 µM) | relative viability (Mirin + Pictilisib; first compound 2.5 µM) | relative viability (Mirin + Pictilisib; first compound 7.906 µM) | relative viability (Mirin + Pictilisib; first compound 25 µM)
NCI-H1666 | 1.02 | 0.995 | 0.74 | 0.796 | 0.668 | 0.684 | 0.665 | 0.64 | 0.627 | 0.662 | 0.963 | 1.03 | 1.04 | 0.941 | 0.836 | 0.445 | 0.64 | 0.365 | 0.36 | 0.324
NCI-H1734 | 0.647 | 0.591 | 0.303 | 0.335 | 0.319 | 0.349 | 0.364 | 0.356 | 0.32 | 0.344 | 0.847 | 0.739 | 0.788 | 0.849 | 0.702 | 0.427 | 0.376 | 0.445 | 0.444 | 0.394
NCI-H1755 | 0.714 | 0.738 | 0.466 | 0.476 | 0.45 | 0.469 | 0.449 | 0.403 | 0.478 | 0.532 | 1 | 0.918 | 0.963 | 0.931 | 1.05 | 0.475 | 0.336 | 0.479 | 0.395 | 0.356
NCI-H1793 | 0.31 | 0.265 | 0.194 | 0.248 | 0.196 | 0.331 | – | 0.349 | 0.335 | 0.339 | 0.731 | – | 0.739 | 0.777 | 0.559 | 0.387 | 0.327 | 0.236 | 0.311 | 0.482
NCI-H1915 | 0.695 | 0.626 | 0.476 | 0.259 | 0.252 | 0.502 | 0.48 | 0.503 | 0.504 | 0.438 | 1.06 | – | 1.12 | 0.948 | 0.975 | 0.98 | – | 1.04 | 0.916 | 0.935
NCI-H1944 | 0.413 | 0.397 | 0.236 | 0.214 | 0.236 | 0.315 | 0.325 | 0.328 | 0.287 | 0.226 | 0.824 | 0.95 | 0.888 | 0.814 | 0.557 | 0.346 | – | 0.328 | 0.335 | 0.359
NCI-H1975 | 0.616 | 0.465 | 0.322 | 0.196 | 0.208 | 0.7 | 0.57 | 0.555 | 0.606 | 0.583 | 0.934 | 0.914 | 0.98 | 0.919 | 0.973 | 0.307 | 0.251 | 0.302 | 0.355 | 0.282
NCI-H1993 | 0.612 | 0.624 | 0.573 | 0.569 | 0.539 | 0.614 | 0.281 | 0.586 | 0.524 | 0.543 | 0.716 | – | 0.821 | 0.76 | 0.824 | 0.748 | 0.698 | 0.893 | 0.818 | 0.782
NCI-H2009 | 0.753 | 0.597 | 0.39 | 0.361 | 0.322 | 0.221 | 0.262 | 0.162 | 0.202 | 0.238 | 1.19 | 1.33 | 1.2 | 1.19 | 1.17 | 0.919 | 0.706 | 0.871 | 0.66 | 0.6
NCI-H2023 | 0.497 | 0.47 | 0.261 | 0.299 | 0.269 | 0.386 | 0.368 | 0.409 | 0.349 | 0.315 | 0.806 | 0.837 | 0.993 | 0.894 | 0.919 | 0.252 | 0.258 | 0.19 | 0.29 | 0.214
NCI-H2085 | 1.02 | 0.679 | 0.602 | 0.664 | 0.551 | 0.458 | 0.47 | 0.495 | 0.562 | 0.486 | 0.948 | 0.999 | 0.941 | 1.1 | 1 | 0.417 | 0.398 | 0.484 | 0.462 | 0.468
NCI-H2087 | 0.824 | 0.719 | 0.418 | 0.535 | 0.551 | 0.227 | 0.297 | 0.249 | 0.133 | 0.318 | 1.24 | 1.28 | 1 | 0.943 | 1.08 | 0.833 | 0.669 | 0.818 | 0.708 | 0.788
NCI-H2126 | 0.811 | 0.754 | – | – | 0.899 | 0.342 | 0.361 | 0.332 | 0.394 | 0.396 | 1.35 | 1.02 | 1.31 | 1.16 | 1.13 | 0.533 | 0.406 | 0.465 | 0.456 | 0.448
NCI-H2170 | 0.708 | 0.703 | 0.641 | 0.555 | 0.555 | 0.415 | 0.379 | 0.374 | 0.361 | 0.436 | 1.05 | 1 | 1.02 | 0.928 | 0.98 | 0.327 | 0.217 | 0.281 | 0.247 | 0.253
NCI-H2228 | 0.662 | 0.637 | 0.386 | 0.545 | 0.405 | 0.863 | 0.704 | 0.799 | 0.647 | 0.622 | 0.689 | 0.883 | 0.974 | 1.1 | 0.752 | 0.397 | 0.396 | 0.37 | 0.356 | 0.346
NCI-H2347 | 0.502 | 0.505 | 0.426 | 0.334 | 0.333 | 0.444 | 0.465 | 0.506 | 0.422 | 0.436 | 1.08 | 0.652 | 1.17 | 0.683 | 0.879 | 0.564 | 0.622 | 1.71 | 0.749 | 0.595
